Experimental data published in paper PMC3714604 (European journal of medicinal chemistry, 2011).
Where two headings read alike, the source gives them in different places.

Columns and labels:
[1] = In vitro stability in rat liver S9 fraction with NADPH-regenerating system; type: in vitro ADME; conditions: for half-life: male, Wistar, rat, s9, pH 7.4
[2] = test system: rat brain membrane FAAH; conditions: cited from earlier work
[3] = In vitro chemical stability at alkaline pH; type: physicochemical; conditions: 1 μM, 300 nM, 100 nM
[4] = test system: FAAH; conditions: rats; ref [24]; cited from earlier work
[5] = rat brain membrane FAAH activity, ref [24] and [38]

Compound	pIC50, inhibitory potency toward FAAH in vitro activity [2, 5]	also measured
CCCCNC(=O)Oc1cccc(-c2ccccc2)c1 [Compound 5]	6.95	half-life [1]: < 2 min
O=C(NC1CCCC1)Oc1cccc(-c2ccccc2)c1 [Compound 8]	7.47	–
O=C(NCc1ccc2ccccc2c1)Oc1cccc(-c2ccccc2)c1 [Compound 15]	8.27	–
CCCCCCNC(=O)Oc1cccc(-c2ccccc2)c1 [Compound 6]	7.24	–
NC(=O)c1cccc(-c2cccc(OC(=O)NCc3ccc4ccccc4c3)c2)c1 [Compound 19]	–	pIC50, inhibitory potency toward FAAH in vitro activity [2]: 9.20
O=C(NCC1CCCCC1)Oc1cccc(-c2ccccc2)c1 [Compound 9]	7.18	–
O=C(NCc1ccccc1)Oc1cccc(-c2ccccc2)c1 [Compound 11]	6.86	–
O=C(NC12CC3CC(CC(C3)C1)C2)Oc1cccc(-c2ccccc2)c1 [Compound 10]	5.39	dependence of pseudo half-lives on concentration at pH 9.0 [3]: No significant difference; stability to in vitro liver metabolism ([1]; rat liver S9, entire testing period): remained stable for the entire testing period
O=C(NCCc1ccccc1)Oc1cccc(-c2ccccc2)c1 [Compound 12]	6.32	–
O=C(NC1CCCCC1)Oc1cccc(-c2ccccc2)c1 [Compound 1]	7.20	dependence of pseudo half-lives on concentration at pH 9.0 [3]: No significant difference; ID50, in vivo potency on FAAH inhibition [4]: 0.81 mg/kg
O=C(NCCCCCCN1CCOCC1)Oc1cccc(-c2ccccc2)c1 [Compound 18]	7.40	–
O=C(NC1Cc2ccccc2C1)Oc1cccc(-c2ccccc2)c1 [Compound 13]	6.67	half-life [1]: > 60 min
CNC(=O)Oc1cccc(-c2ccccc2)c1 [Compound 3]	4.86	–
O=C(NCCCCc1ccccc1)Oc1cccc(-c2ccccc2)c1 [Compound 16]	8.03	dependence of pseudo half-lives on concentration at pH 9.0 [3]: No significant difference; ID50, in vivo potency on FAAH inhibition [4]: 0.96 mg/kg
CC(C)NC(=O)Oc1cccc(-c2ccccc2)c1 [Compound 4]	6.28	half-life [1]: < 2 min
O=C(NC1CCC1)Oc1cccc(-c2ccccc2)c1 [Compound 7]	7.27	–
O=C(NCCCCCCc1ccccc1)Oc1cccc(-c2ccccc2)c1 [Compound 17]	7.89	–
